In patent publication US10918731B2, “HSP90 inhibitory peptide conjugate and application thereof in treating tumor” (INSTITUTE OF BASIC MEDICAL SCIENCES, CHINESE ACADEMY OF …, priority 2015, dated 2021):
Ends that are not written are not given here. Peptide text beside a SMILES is read from it.

Tests used:
[1] = tested on: Lung adenocarcinoma A549 cells; assay: CCK-8 cytotoxicity, lung adenocarcinoma A549 cells; type: cell-based; conditions: human, 48 h
Procedure: (§1) Lung adenocarcinoma A549, breast cancer MCF-7S and melanoma A375 cells were diluted respectively to 3×10^4 cells/ml and pipetted to 96-well plate with 100 μl in each well. Twenty-four hours later, 5, 20, 80 or 320 nM DTX-P7, Paclitaxel-heptapeptide conjugate (PTX-P7), Doxorubicin-NH2-heptapeptide conjugate (DOX-P7) and Doxorubicin-OH-heptapeptide conjugate (DOX-OH-P7) were added to the wells and incubated for 48 h. Then 10 μl CCK-8 was added and measured 1.5 h later at 450 nm to calculate the viability and median inhibitory concentration IC50.

[2] = tested on: breast cancer MCF-7S cells; assay: CCK-8 cytotoxicity, breast cancer MCF-7S cells; type: cell-based; conditions: human, 48 h
Procedure: as §1

[3] = tested on: melanoma A375 cells; assay: CCK-8 cytotoxicity, melanoma A375 cells; type: cell-based; conditions: human, 48 h
Procedure: as §1

[4] = tested on: tumor cell; assay: Autophagy: autophagosome and expression of autophagy related proteins (Beclin 1, LC3); type: cell-based; conditions: 6 h; for expression of autophagic Beclin1 and LC3, single agent: agent alone
Procedure: The cells were seeded and cultured. Targeting peptide was diluted with culture medium. Appropriate concentration of DTX was also prepared for the seeded cells. Equivalent culture medium was added as negative control group; 1×10^−9 M targeting peptide solution was added as Peptide group; 10^−9 M DTX was added as DTX group; 10^−9 M targeting peptide and […] were added as combination group (DTX+P). The cells were incubated at 37° C., 5% CO2 for 6 h to analyze the autophagosome. Protein was extracted to measured expression of autophagy related proteins.

[5] = tested on: A549 cell xenograft; assay: Human non-small cell lung cancer A549 xenograft nude mice model, tumor growth; type: in vivo, BALB/c nu/nu female nude mice; conditions: 10 mg/kg based on DTX, intraperitoneal, once a week, four injections
Procedure: A549 cell, a non-small cell lung cancer cell line, growing in logarithmic phase were collected and gently pipetted with 1 ml F-12K media containing […] to prepare the single cell suspension, which was consequently counted with appropriate dilution. The cell suspension was mixed with Matrigel (1:3) under ice bath. The concentration of the cell suspension was adjusted to 8×10^6 cells/ml and stored at 0° C. before transplantation.
Thirty BALB/c nu/nu female nude mice (16 g) were acclimated to the environment for 1 week before the formal experiment. […]
The mice were frequently observed and tumor volume was measured with a Vernier caliper, the volume was calculated by the equation (long diameter×short diameter^2) (½), when tumor reaching a size of 100 mm^3, mice were divided into 4 groups: (1) Saline (control), (2) DTX, (3) TN-DTX and (4) DTX-P7.
Next day after animal grouping, agents were administrated via intraperitoneal injection once a week for a total of four injections. The first administrated day was recorded as Day 0 and the other administrated days were respectively recorded as Day 7, Day 14, Day 21. […]
The mice were measured and weighted every two times a week. Tumor dimensions were measured using calipers. […]

[6] = tested on: HSP90; assay: Western blotting of HSP90 expression in A549 cells; type: cell-based, human; conditions: 48 h
Procedure: • (1) lung adenocarcinoma A549 cells were trypsinized and then centrifuged at 800×g for 5 min. The precipitate was re-suspended with PBS and adjusted to 1×10^6 cells/ml. • (2) the cells were seeded into 6-well plate and 2 ml culture medium was added. Then the cells were incubated at 37° C., 5% CO2 overnight. • (3) The peptide was diluted with medium and 300 μl solution was added to each well with a final concentration of 1×10^−4 M. Equal volume of medium was added to the negative well. Triple wells were set for each group and experiment was repeated three times. The plate was incubated at 37° C., 5% CO2 for 48 h. Protein was extracted and subjected to Western blotting analysis.

[7] = tested on: tumor cell; assay: Apoptosis by Annexin V method and Western blotting of apoptosis related proteins; type: cell-based
Procedure: The cells were seeded and cultured. Targeting peptide was diluted with culture medium. Appropriate concentration of DTX was also prepared for the seeded cells. Equivalent culture medium was added as negative control group, 1×10^−9 M targeting peptide solution added as Peptide group, 10^−9 M DTX added as DTX group, 10^−9 M targeting peptide and […] added as combination group (DTX+P). The cells were incubated at 37° C., 5% CO2 for 6 h to analyze the apoptosis by Annexin V method. The protein was extracted to measure the expression of apoptosis related proteins.

COc1ccc2c(c1)C(=O)c1c(O)c3c(c(O)c1C2=O)C[C@@](O)(C(=O)COC(=O)CCC(=O)N[C@@H](CC(C)C)C(=O)N1CCC[C@H]1C(=O)N[C@@H](CC(C)C)C(=O)N[C@H](C(=O)N1CCC[C@H]1C(=O)N[C@@H](CC(C)C)C(=O)N1CCC[C@H]1C(=O)O)[C@@H](C)O)C[C@@H]3OC1CC(N)C(O)C(C)O1 (stereo partly drawn) [DOX-OH-P7] (HELM PEPTIDE1{[COc1ccc2c(c1)C(=O)c1c(O)c3c(c(O)c1C2=O)C[C@@](O)(C(=O)COC(=O)CCC(=O)[*:2])C[C@@H]3OC1CC(N)C(O)C(C)O1].L.P.L.T.P.L.P}$$$$V2.0)
IC50 [1]: 0.0062 µM | IC50 [2]: 0.0181 µM | IC50 [3]: 0.0284 µM

CC(=O)O[C@@]12CO[C@@H]1C[C@H](O)[C@@]1(C)C(=O)[C@H](O)C3=C(C)[C@@H](OC(=O)[C@H](O)[C@@H](NC(=O)OC(C)(C)C)c4ccccc4)C[C@@](O)([C@@H](OC(=O)c4ccccc4)[C@H]21)C3(C)C [DTX, Docetaxel, reference compound]
expression of autophagic Beclin1 and LC3, single agent [4]: enhanced the expression the Beclin 1 and conversion of LC3-I to LC3-II | effect on tumor growth [5]: obvious inhibitory effects on the tumor growth

LPLTPLP (SEQ ID No: 1) [targeting peptide]
expression of HSP90 [6]: effectively down regulated the expression of HSP90 in a dose-dependent manner | apoptosis (Annexin V), peptide alone ([7]; 6 h, 1×10^−9 M targeting peptide): induced apoptosis | apoptosis (Annexin V), peptide combined with DTX ([7]; 6 h, combination group (DTX+P)): further promoted apoptosis when combined with DTX | caspase-3 cleavage, peptide alone ([7]; Western blotting): induce caspase-3 cleavage | caspase-3 cleavage, peptide combined with DTX ([7]; Western blotting, compared with DTX alone): the cleavage was further enhanced when combined with DTX compared with DTX alone | expression of autophagic Beclin1 and LC3, single agent [4]: did not affect the expression of these proteins | Beclin1 expression and conversion of LC3-I to LC3-II, DTX and targeting peptide simultaneously added ([4]; combination group (DTX+P), compared with DTX treatment only): significantly inhibited the autophagy induced by DTX
